According to patent publication US20110312941A1, “1,4-DISUBSTITUTED PIPERIDINES AS VASOPRESSIN RECEPTOR VIA ANTAGONISTS” (VANTIA LIMITED, priority 2009, published 2011):

Each compound was assayed against T1, cloned human V1a receptor (Homo sapiens, UniProt P37288) (assay: in vitro functional calcium mobilisation assay (FLIPR), antagonist activity, 1321N1 cells, 250 pM AVP). Settings: functional pKi derived from pIC50 (Equation 1), FLIPR Ca2+ mobilisation, 1321N1 cells expressing cloned human V1a receptor, read-out: Mean fpKi (Human V1a) (converted).
T1 construct: host or cells: human brain astrocytoma 1321N1 cells
T1 sequence (P37288 whole entry): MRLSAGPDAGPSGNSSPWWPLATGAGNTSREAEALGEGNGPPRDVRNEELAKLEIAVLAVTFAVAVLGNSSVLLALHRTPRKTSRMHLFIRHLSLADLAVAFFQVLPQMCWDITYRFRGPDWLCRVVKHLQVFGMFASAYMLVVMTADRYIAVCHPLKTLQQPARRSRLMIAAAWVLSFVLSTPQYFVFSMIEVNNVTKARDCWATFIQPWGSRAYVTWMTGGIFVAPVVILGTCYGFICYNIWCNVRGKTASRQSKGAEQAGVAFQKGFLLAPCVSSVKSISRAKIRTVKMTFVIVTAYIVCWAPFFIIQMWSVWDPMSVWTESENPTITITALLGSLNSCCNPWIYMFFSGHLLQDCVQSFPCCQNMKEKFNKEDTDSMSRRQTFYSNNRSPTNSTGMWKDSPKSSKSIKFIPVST
Type: cell-based
Protocol: The primary assay which may be used to determine the ability of the compounds of formula (1) to inhibit the vasopressin V1a receptor is an in vitro functional calcium mobilisation assay (FLIPR) that measures antagonist activity at a cloned human V1a receptor. The assay is described below.
The antagonist activity of compounds of formula (1) were determined in a Calcium (Ca2+) mobilisation assay using whole cells (human brain astrocytoma 1321N1 cells, ex Perkin Elmer) genetically modified to stably express a cloned human V1a receptor. Dose response curves were determined by displacement of a single concentration of agonist (250 pM AVP, ex Sigma) with increasing concentrations of compound. A pIC50 value is determined by non-linear regression to a 4-parameter logistic equation and a functional pKi (fpKi) derived using Equation 1.
where A=agonist single conc, and A50=the agonist EC50.
In the case of Cc1ccc(N2CCC(C(=O)N3CCc4nc(N5CCOCC5)[nH]c4-c4cc(C)ccc43)CC2)nc1 [Example 1, (9-Methyl-2-morpholin-4-yl-4,5-dihydro-1H-1,3,6-triaza-benzo[e]azulen-6-yl)-(5′-methyl-3,4,5,6-tetrahydro-2H-[1,2′]bipyridinyl-4-yl)-methanone], the Ki is reported as 0.977 nM. Cc1ccc2c(c1)-c1[nH]c(N3CCOCC3)nc1CCN2C(=O)C1CCN(c2ncccc2C)CC1 [Example 2, (9-Methyl-2-morpholin-4-yl-4,5-dihydro-1H-1,3,6-triaza-benzo[e]azulen-6-yl)-(3′-methyl-3,4,5,6-tetrahydro-2H-[1,2′]bipyridinyl-4-yl)-methanone] gave a Ki of 1.45 nM. COc1cccnc1N1CCC(C(=O)N2CCc3nc(N4CCOCC4)[nH]c3-c3cc(C)ccc32)CC1 [Example 3, (3′-Methoxy-3,4,5,6-tetrahydro-2H-[1,2′]bipyridinyl-4-yl)-(9-methyl-2-morpholin-4-yl-4,5-dihydro-1H-1,3,6-triaza-benzo[e]azulen-6-yl)-methanone] gave a Ki of 0.977 nM. Cc1ccc2c(c1)-c1[nH]c(N3CCOCC3)nc1CCN2C(=O)C1CCN(c2ccc(C)nc2)CC1 [Example 4, (9-Methyl-2-morpholin-4-yl-4,5-dihydro-1H-1,3,6-triaza-benzo[e]azulen-6-yl)-(6′-methyl-3,4,5,6-tetrahydro-2H-[1,3′]bipyridinyl-4-yl)-methanone] showed a Ki of 1.48 nM. With Cc1cccc(N2CCC(C(=O)N3CCc4nc(N5CCOCC5)[nH]c4-c4cc(F)ccc43)CC2)n1 [Example 5, (9-Fluoro-2-morpholin-4-yl-4,5-dihydro-1H-1,3,6-triaza-benzo[e]azulen-6-yl)-(6′-methyl-3,4,5,6-tetrahydro-2H-[1,2′]bipyridinyl-4-yl)-methanone] the Ki was 1.78 nM. With Cc1nc2c([nH]1)-c1ccccc1N(C(=O)C1CCN(c3ncccn3)CC1)CC2 [Example 6] the Ki was 912 nM. Cc1nc2c([nH]1)-c1cc(Cl)ccc1N(C(=O)C1CCN(c3ncccn3)CC1)CC2 [Example 7] was tested, and the Ki was 49 nM. In the case of Cc1nc2c([nH]1)-c1ccccc1N(C(=O)C1CCN(c3ccccn3)CC1)CC2 [Example 8], the Ki is reported as 151 nM. Work on O=C(C1CCN(c2ccccn2)CC1)N1CCc2nc(N3CCOCC3)[nH]c2-c2ccccc21 [Example 9] yielded a Ki of 18.2 nM. In the case of Cc1cccnc1N1CCC(C(=O)N2CCc3nc(N4CCOCC4)[nH]c3-c3ccccc32)CC1 [Example 10], the Ki is reported as 5.01 nM. Work on Cc1ccnc(N2CCC(C(=O)N3CCc4nc(N5CCOCC5)[nH]c4-c4ccccc43)CC2)c1 [Example 11] yielded a Ki of 3.72 nM. Cc1ccc(N2CCC(C(=O)N3CCc4nc(N5CCOCC5)[nH]c4-c4ccccc43)CC2)nc1 [Example 12] gave a Ki of 2.14 nM. O=C(C1CCN(c2ccccn2)CC1)N1CCc2nc(N3CCOCC3)[nH]c2-c2cc(F)ccc21 [Example 13] showed a Ki of 7.94 nM. Compound Cc1cccnc1N1CCC(C(=O)N2CCc3nc(N4CCOCC4)[nH]c3-c3cc(F)ccc32)CC1 [Example 14] has a Ki of 2.51 nM. For Cc1ccnc(N2CCC(C(=O)N3CCc4nc(N5CCOCC5)[nH]c4-c4cc(F)ccc43)CC2)c1 [Example 15], the Ki was 1.95 nM. With Cc1ccc(N2CCC(C(=O)N3CCc4nc(N5CCOCC5)[nH]c4-c4cc(F)ccc43)CC2)nc1 [Example 16] the Ki was 2.95 nM. Compound CCc1nc2c([nH]1)-c1cc(C)ccc1N(C(=O)C1CCN(c3ncccc3C)CC1)CC2 [Example 17] has a Ki of 5.01 nM. CCc1nc2c([nH]1)-c1cc(C)ccc1N(C(=O)C1CCN(c3cc(C)ccn3)CC1)CC2 [Example 18] was tested, and the Ki was 2.29 nM. CCc1nc2c([nH]1)-c1cc(C)ccc1N(C(=O)C1CCN(c3cc(C)ccn3)CC1)CC2 [Example 19] showed a Ki of 2.34 nM. In the case of CCCc1nc2c([nH]1)-c1cc(C)ccc1N(C(=O)C1CCN(c3ccccn3)CC1)CC2 [Example 20], the Ki is reported as 12.3 nM. For CCCc1nc2c([nH]1)-c1cc(C)ccc1N(C(=O)C1CCN(c3ncccc3C)CC1)CC2 [Example 21], the Ki was 4.47 nM. Work on CCCc1nc2c([nH]1)-c1cc(C)ccc1N(C(=O)C1CCN(c3cc(C)ccn3)CC1)CC2 [Example 22] yielded a Ki of 2.04 nM. For CCCc1nc2c([nH]1)-c1cc(C)ccc1N(C(=O)C1CCN(c3ccc(C)cn3)CC1)CC2 [Example 23], the Ki was 2.14 nM. Cc1ccc2c(c1)-c1[nH]c(C3CC3)nc1CCN2C(=O)C1CCN(c2ccccn2)CC1 [Example 24] gave a Ki of 8.71 nM. Cc1ccc(N2CCC(C(=O)N3CCc4nc(C5CC5)[nH]c4-c4cc(C)ccc43)CC2)nc1 [Example 25] gave a Ki of 1.51 nM. Compound CCCCc1nc2c([nH]1)CCN(C(=O)C1CCN(c3ccccn3)CC1)c1ccc(C)cc1-2 [Example 26] has a Ki of 18.2 nM. CCCCc1nc2c([nH]1)CCN(C(=O)C1CCN(c3ccc(C)cn3)CC1)c1ccc(C)cc1-2 [Example 27] showed a Ki of 4.47 nM. Cc1ccc2c(c1)-c1nc(CC(C)C)[nH]c1CCN2C(=O)C1CCN(c2ccccn2)CC1 [Example 28] showed a Ki of 13.5 nM. Cc1ccc(N2CCC(C(=O)N3CCc4[nH]c(CC(C)C)nc4-c4cc(C)ccc43)CC2)nc1 [Example 29] showed a Ki of 2.69 nM. In the case of Cc1ccc(N2CCC(C(=O)N3CCc4nc(N5CCN(C)CC5)[nH]c4-c4cc(C)ccc43)CC2)nc1 [Example 30], the Ki is reported as 1.78 nM. Cc1ccc2c(c1)-c1[nH]c(N3CCOCC3)nc1CCN2C(=O)C1CCN(c2ccccn2)CC1 [Example 31] showed a Ki of 3.8 nM. Compound Cc1ccnc(N2CCC(C(=O)N3CCc4nc(N5CCOCC5)[nH]c4-c4cc(C)ccc43)CC2)c1 [Example 32] has a Ki of 1.58 nM. For COc1ccnc(N2CCC(C(=O)N3CCc4nc(N5CCOCC5)[nH]c4-c4cc(C)ccc43)CC2)c1 [Example 33], the Ki was 0.977 nM. COc1ccc(N2CCC(C(=O)N3CCc4nc(N5CCOCC5)[nH]c4-c4cc(C)ccc43)CC2)nc1 [Example 34] was tested, and the Ki was 2.69 nM. Cc1ccc2c(c1)-c1[nH]c(N3CCOCC3)nc1CCN2C(=O)C1CCN(c2ccc(C(F)(F)F)cn2)CC1 [Example 35] showed a Ki of 7.08 nM. Cc1ccc2c(c1)-c1[nH]c(N3CCOCC3)nc1CCN2C(=O)C1CCN(c2ccc(C#N)cn2)CC1 [Example 36] showed a Ki of 97.7 nM. Cc1ccc2c(c1)-c1[nH]c(C3CCOCC3)nc1CCN2C(=O)C1CCN(c2ncccc2C)CC1 [Example 37] gave a Ki of 4.37 nM. Cc1ccnc(N2CCC(C(=O)N3CCc4nc(C5CCOCC5)[nH]c4-c4cc(C)ccc43)CC2)c1 [Example 38] showed a Ki of 2.24 nM. Work on Cc1ccc(N2CCC(C(=O)N3CCc4nc(C5CCOCC5)[nH]c4-c4cc(C)ccc43)CC2)nc1 [Example 39] yielded a Ki of 2 nM. With COc1cccnc1N1CCC(C(=O)N2CCc3nc(C4CCOCC4)[nH]c3-c3cc(C)ccc32)CC1 [Example 40] the Ki was 1.26 nM. In the case of COc1ccnc(N2CCC(C(=O)N3CCc4nc(C5CCOCC5)[nH]c4-c4cc(C)ccc43)CC2)c1 [Example 41], the Ki is reported as 2.34 nM. Compound COc1ccc(N2CCC(C(=O)N3CCc4nc(C5CCOCC5)[nH]c4-c4cc(C)ccc43)CC2)nc1 [Example 42] has a Ki of 5.62 nM. Cc1ccc(N2CCC(C(=O)N3CCc4nc(N5CCCC5)[nH]c4-c4cc(C)ccc43)CC2)nc1 [Example 43] was tested, and the Ki was 7.59 nM. For Cc1nc2c([nH]1)-c1cc(Cl)ccc1N(C(=O)C1CCN(c3ccccn3)CC1)CC2 [Example 44], the Ki was 12.6 nM. In the case of Cc1ccc(N2CCC(C(=O)N3CCc4nc(C)[nH]c4-c4cc(Cl)ccc43)CC2)nc1 [Example 45, (9-Chloro-2-methyl-4,5-dihydro-1H-1,3,6-triaza-benzo[e]azulen-6-yl)-(5′-methyl-3,4,5,6-tetrahydro-2H-[1,2′]bipyridinyl-4-yl)-methanone], the Ki is reported as 6.31 nM.
